Values of other authors in US8017143B2, “Coating agent for drug releasing stent, preparation method thereof and drug releasing stent coated therewith” (Taewoong Medical Co., Ltd, priority 2007, dated 2011).

Conditions: esophageal, prostate, rectal, bladder cancer, hepatic, central nervous system and brain tumors

CC(=O)O[C@H]1C(=O)[C@@]2(C)[C@H]([C@H](OC(=O)c3ccccc3)[C@]3(O)C[C@H](OC(=O)[C@H](O)[C@@H](NC(=O)c4ccccc4)c4ccccc4)C(C)=C1C3(C)C)[C@]1(OC(C)=O)CO[C@@H]1C[C@@H]2O [taxol]
therapeutic effects: excellent therapeutic effects
